Data as given in patent US20080220103A1, “METHOD FOR TREATING/CONTROLLING/KILLING FUNGI AND BACTERIA ON LIVING ANIMALS” (priority 2005, published 2008).
≈ marks a conversion by molar mass, not a printed value. Read-outs that look alike come from different tables or passages of the source.

Experiments:
T. rubrum [1] = assay: MIC, modified CLSI M38A broth dilution; assay type: cell-based, Trichophyton rubrum
Experimental: (§1) Minimum Inhibitory Concentration (MIC): Minimum inhibitory concentrations of synthetic and semisynthetic and natural products against dermatophytes were determined using a modification of the Clinical Laboratory Standards Institute (CLSI, formerly National Committee of Clinical Laboratory Standards, NCCLS) M38A standard method for dermatophytes, while MIC of these agents against Candida species were determined using the CLSI M27-A2 methodology. The method used to determine the MIC against bacteria was based on the CLSI document M7-A7.
(§2) For dermatophytes, serial dilutions of terbinafine, tolnaftate were prepared in a range of 0.004-2 μg/ml, while for miconazole concentrations ranged between 0.015-8 μg/ml. Finally, for essential oils, the concentrations tested were between 0.03-16 μg/ml. The only exception was tea tree oil where dilutions were prepared in a range of 0.0078-4 μg/ml. The MIC was read at 4 days post inoculation and defined as the lowest concentration of an agent to inhibit 80% of fungal growth as compared to the growth control (Table 2).

[2] = system: All bacteria (Staphylococcus species); assay: MIC, CLSI M7-A7, pooled bacteria; assay type: cell-based, S. aureus, S. epidermidis; settings: n = 12
Experimental: as §1
(§3) For bacterial species, the medium used to evaluate the antibacterial activity of agents and essential oils was Mueller-Hinton (Oxoid Ltd., Basingstoke, Hampshire, England). Serial dilutions of miconazole, terbinafine, and tolnaftate were prepared in a range of 0.125-64 μg/ml and serial dilutions of tea tree oil were prepared in a range of 0.0078-4 μg/ml, while those for the rest of the essential oils were prepared in a range 0.031-16 μg/ml.
(§4) In the following Tables, MIC50 and MIC90 are defined as the minimal concentrations of a compound that can inhibit 50% and 90% of the tested organisms, respectively.

S. epidermidis = assay: MIC, CLSI M7-A7, Mueller-Hinton; assay type: cell-based; settings: for MIC: read-out: MIC
Experimental: as §1, §3

All dermatophytes [3] = assay: MIC, modified CLSI M38A, pooled dermatophytes; assay type: cell-based, E. floccosum, T. rubrum, T. mentagrophytes; settings: n = 18
Experimental: as §1, §2, §4

T. rubrum [4] = assay: Minimum fungicidal concentration (Canton et al.); assay type: cell-based, Trichophyton rubrum; settings: for MFC: Trichophyton rubrum
Experimental: (§5) Minimum fungicidal concentration (MFC): The minimum fungicidal concentrations of various agents were determined using the technique described by Canton et al. (Antimicrob Agents Chemother. 2004 8:2477-82). In that method, fungal conidia were collected following growth on potato dextrose agar (PDA) plates and were used to inoculate 96-well plates containing different concentrations of agents. Following incubation at 35° C. for 4 days (for dermatophytes) or 24 hours (for yeast), wells showing no visible growth were cultured to determine the MFC (defined as the lowest concentration of a given agent that kills>99.999% of fungal conidia or spores). The MFC value represents the level of the agent at which spores or conidia were killed.

T. mentagrophytes [5] = assay: Minimum fungicidal concentration (Canton et al.); assay type: cell-based, Trichophyton mentagrophytes; settings: Trichophyton mentagrophytes
Experimental: as §5

E. floccosum [6] = assay: MIC, modified CLSI M38A broth dilution; assay type: cell-based, Epidermophyton floccosum
Experimental: as §1, §2

C. albicans = assay: MIC, CLSI M27-A2; assay type: cell-based, Candida albicans
Experimental: as §1
The remaining essential oils were prepared in a dilution range of 0.03-16 μg/ml. For Candida the MIC was read at 24 hours and defined as the lowest concentration to inhibit 50% of fungal growth as compared to the growth control (Table 4).

All dermatophytes [7] = assay: Minimum fungicidal concentration, pooled dermatophytes; assay type: cell-based, E. floccosum, T. rubrum, T. mentagrophytes
Experimental: as §5, §4

T. mentagrophytes [8] = assay: MIC, modified CLSI M38A broth dilution; assay type: cell-based, Trichophyton mentagrophytes; settings: for MIC: Trichophyton mentagrophytes
Experimental: as §1, §2

E. floccosum [9] = assay: Minimum fungicidal concentration (Canton et al.); assay type: cell-based, Epidermophyton floccosum; settings: Epidermophyton floccosum
Experimental: as §5

[10] = Trichophyton rubrum, T. rubrum, n = 6
[11] = Staphylococcus epidermidis, S. epidermidis, n = 6
[12] = Epidermophyton floccosum, E. floccosum, n = 6
[13] = Candida albicans, C. albicans, n = 6

Clc1ccc(COC(Cn2ccnc2)c2ccc(Cl)cc2Cl)c(Cl)c1 (centres unmarked) [Miconazole, miconazole]
MIC Range (T. rubrum [1]; T. rubrum, n = 6): 0.125 to 0.25 µg/mL
MIC (T. rubrum [1]; Trichophyton rubrum, T. rubrum strain 1967): 0.125 µg/mL (≈ 0.3 µM)
MIC (T. rubrum [1]; Trichophyton rubrum, T. rubrum strain 2098): 0.125 µg/mL (≈ 0.3 µM)
MIC (T. rubrum [1]; Trichophyton rubrum, T. rubrum strain 2246): 0.125 µg/mL (≈ 0.3 µM)
MIC (T. rubrum [1]; Trichophyton rubrum, T. rubrum strain 8063): 0.125 µg/mL (≈ 0.3 µM)
MIC (T. rubrum [1]; Trichophyton rubrum, T. rubrum strain 8071): 0.25 µg/mL (≈ 0.601 µM)
MIC (T. rubrum [1]; Trichophyton rubrum, T. rubrum strain 8092): 0.25 µg/mL (≈ 0.601 µM)
MIC50 (T. rubrum [1]; [10]): 0.125 µg/mL (≈ 0.3 µM)
MIC90 (T. rubrum [1]; [10]): 0.25 µg/mL (≈ 0.601 µM)
MIC50 ([2]; Staphylococcus): 1 µg/mL (≈ 2.4 µM)
MIC90 ([2]; Staphylococcus): 2 µg/mL (≈ 4.81 µM)
MIC Range [2]: 0.5 to 2 µg/mL
MIC Range (S. epidermidis; S. epidermidis, n = 6): 0.5 to 1 µg/mL
MIC (S. epidermidis; Staphylococcus epidermidis, S. epidermidis strain 8472): 0.5 µg/mL (≈ 1.2 µM)
MIC (S. epidermidis; Staphylococcus epidermidis, S. epidermidis strain 8473): 1 µg/mL (≈ 2.4 µM)
MIC (S. epidermidis; Staphylococcus epidermidis, S. epidermidis strain 8474): 0.5 µg/mL (≈ 1.2 µM)
MIC (S. epidermidis; Staphylococcus epidermidis, S. epidermidis strain 8475): 1 µg/mL (≈ 2.4 µM)
MIC (S. epidermidis; Staphylococcus epidermidis, S. epidermidis strain 8476): 1 µg/mL (≈ 2.4 µM)
MIC (S. epidermidis; Staphylococcus epidermidis, S. epidermidis strain 8477): 1 µg/mL (≈ 2.4 µM)
MIC50 (S. epidermidis; [11]): 1 µg/mL (≈ 2.4 µM)
MIC90 (S. epidermidis; [11]): 1 µg/mL (≈ 2.4 µM)
MIC50 (All dermatophytes [3]): 0.125 µg/mL (≈ 0.3 µM)
MIC90 (All dermatophytes [3]): 0.25 µg/mL (≈ 0.601 µM)
MIC Range (All dermatophytes [3]): 0.015 to 0.25 µg/mL
MFC range (row MIC Range) (T. rubrum [4]; T. rubrum, n = 6): 1 to 8 µg/mL
MFC (T. rubrum [4]; T. rubrum strain 1967, read-out: MFC): 8 µg/mL (≈ 19.2 µM)
MFC (T. rubrum [4]; T. rubrum strain 2098, read-out: MFC): 4 µg/mL (≈ 9.61 µM)
MFC (T. rubrum [4]; T. rubrum strain 2246, read-out: MFC): 1 µg/mL (≈ 2.4 µM)
MFC (T. rubrum [4]; T. rubrum strain 8063, read-out: MFC): 8 µg/mL (≈ 19.2 µM)
MFC (T. rubrum [4]; T. rubrum strain 8071, read-out: MFC): 8 µg/mL (≈ 19.2 µM)
MFC (T. rubrum [4]; T. rubrum strain 8092, read-out: MFC): 8 µg/mL (≈ 19.2 µM)
MFC (T. rubrum [4]; T. rubrum, n = 6, read-out: MFC, row MIC50): 8 µg/mL (≈ 19.2 µM)
MFC (T. rubrum [4]; T. rubrum, n = 6, read-out: MFC, row MIC90): 8 µg/mL (≈ 19.2 µM)
MFC (T. mentagrophytes [5]; T. mentagrophytes strain 2124, read-out: MFC): > 8 µg/mL
MFC (T. mentagrophytes [5]; T. mentagrophytes strain 2125, read-out: MFC): > 8 µg/mL
MFC (T. mentagrophytes [5]; T. mentagrophytes strain 2127, read-out: MFC): > 8 µg/mL
MFC (T. mentagrophytes [5]; T. mentagrophytes strain 2128, read-out: MFC): > 8 µg/mL
MFC (T. mentagrophytes [5]; T. mentagrophytes, n = 6, read-out: MFC, row MIC50): > 8 µg/mL
MFC (T. mentagrophytes [5]; T. mentagrophytes, n = 6, read-out: MFC, row MIC90): > 8 µg/mL
MIC Range (E. floccosum [6]; E. floccosum, n = 6): 0.06 to 0.125 µg/mL
MIC (E. floccosum [6]; Epidermophyton floccosum, E. floccosum strain 1666): 0.125 µg/mL (≈ 0.3 µM)
MIC (E. floccosum [6]; Epidermophyton floccosum, E. floccosum strain 1798): 0.125 µg/mL (≈ 0.3 µM)
MIC (E. floccosum [6]; Epidermophyton floccosum, E. floccosum strain 1925): 0.06 µg/mL (≈ 0.144 µM)
MIC (E. floccosum [6]; Epidermophyton floccosum, E. floccosum strain 1926): 0.125 µg/mL (≈ 0.3 µM)
MIC (E. floccosum [6]; Epidermophyton floccosum, E. floccosum strain 1961): 0.125 µg/mL (≈ 0.3 µM)
MIC (E. floccosum [6]; Epidermophyton floccosum, E. floccosum strain 2165): 0.125 µg/mL (≈ 0.3 µM)
MIC50 (E. floccosum [6]; [12]): 0.125 µg/mL (≈ 0.3 µM)
MIC90 (E. floccosum [6]; [12]): 0.125 µg/mL (≈ 0.3 µM)
MIC (C. albicans; C. albicans strain 8280 (multi-resistant)): >16 µg/mL
MIC (C. albicans; Candida albicans, 24 h, C. albicans strain 1740, 50% inhibition, 24 hours, read-out: MIC): 1 µg/mL (≈ 2.4 µM)
MIC (C. albicans; Candida albicans, C. albicans strain 2108, read-out: MIC): 2 µg/mL (≈ 4.81 µM)
MIC (C. albicans; Candida albicans, C. albicans strain 2153, read-out: MIC): 1 µg/mL (≈ 2.4 µM)
MIC (C. albicans; Candida albicans, C. albicans strain 8280 (multi-resistant), read-out: MIC): > 16 µg/mL
MIC (C. albicans; Candida albicans, C. albicans strain 8283, read-out: MIC): 16 µg/mL (≈ 38.4 µM)
MIC (C. albicans; Candida albicans, C. albicans strain 8364, read-out: MIC): 2 µg/mL (≈ 4.81 µM)
MIC (C. albicans; Candida albicans, C. albicans, another isolate, read-out: MIC): 16 µg/mL (≈ 38.4 µM)
MIC (C. albicans; Candida albicans, C. albicans, four isolates, read-out: MIC): 1 to 2 µg/mL (≈ 2.4 to 4.81 µM)
MIC50 (C. albicans; [13]): 2 µg/mL (≈ 4.81 µM)
MIC90 (C. albicans; [13]): 16 µg/mL (≈ 38.4 µM)
MFC (All dermatophytes [7]; All dermatophytes, n = 18, read-out: MFC, row MIC50): 8 µg/mL (≈ 19.2 µM)
MFC (All dermatophytes [7]; All dermatophytes, n = 18, read-out: MFC, row MIC90): > 8 µg/mL
MFC (All dermatophytes [7]; all T. mentagrophytes isolates and the majority of T. rubrum and E. floccosum isolates, read-out: MFC): ≥ 8 µg/mL
MIC Range (T. mentagrophytes [8]; T. mentagrophytes, n = 6): 0.015 to 0.25 µg/mL
MIC (T. mentagrophytes [8]; T. mentagrophytes strain 1720): 0.03 µg/mL (≈ 0.0721 µM)
MIC (T. mentagrophytes [8]; T. mentagrophytes strain 2124): 0.25 µg/mL (≈ 0.601 µM)
MIC (T. mentagrophytes [8]; T. mentagrophytes strain 2125): 0.25 µg/mL (≈ 0.601 µM)
MIC (T. mentagrophytes [8]; T. mentagrophytes strain 2126): 0.015 µg/mL (≈ 0.036 µM)
MIC (T. mentagrophytes [8]; T. mentagrophytes strain 2127): 0.25 µg/mL (≈ 0.601 µM)
MIC (T. mentagrophytes [8]; T. mentagrophytes strain 2128): 0.125 µg/mL (≈ 0.3 µM)
MFC (E. floccosum [9]; E. floccosum strain 1666, read-out: MFC): 2 µg/mL (≈ 4.81 µM)
MFC (E. floccosum [9]; E. floccosum strain 1798, read-out: MFC): 0.5 µg/mL (≈ 1.2 µM)
MFC (E. floccosum [9]; E. floccosum strain 1925, read-out: MFC): 8 µg/mL (≈ 19.2 µM)
MFC (E. floccosum [9]; E. floccosum strain 1926, read-out: MFC): > 8 µg/mL
MFC (E. floccosum [9]; E. floccosum strain 1961, read-out: MFC): > 8 µg/mL
MFC (E. floccosum [9]; E. floccosum strain 2165, read-out: MFC): > 8 µg/mL
MFC (E. floccosum [9]; E. floccosum, n = 6, read-out: MFC, row MIC50): 8 µg/mL (≈ 19.2 µM)
MFC (E. floccosum [9]; E. floccosum, n = 6, read-out: MFC, row MIC90): > 8 µg/mL
